Reference: patent US20220144812A1, “QUINOLINE DERIVATIVES AND THEIR USE FOR THE TREATMENT OF CANCER” (Epizyme, Inc., priority 2019, published 2022)

Columns and labels:
EP300 (P300(1048-1664)) = biological target: T1, EP300 (P300(1048-1664)) (Homo sapiens, UniProt Q09472); test: Biochemical assay for EP300, SAMDI; conditions: EP300, SAMDI; read-out: EP300 Biochemistry IC50
T1 construct: P300(1048-1664)
T1 sequence (Q09472 1048-1664): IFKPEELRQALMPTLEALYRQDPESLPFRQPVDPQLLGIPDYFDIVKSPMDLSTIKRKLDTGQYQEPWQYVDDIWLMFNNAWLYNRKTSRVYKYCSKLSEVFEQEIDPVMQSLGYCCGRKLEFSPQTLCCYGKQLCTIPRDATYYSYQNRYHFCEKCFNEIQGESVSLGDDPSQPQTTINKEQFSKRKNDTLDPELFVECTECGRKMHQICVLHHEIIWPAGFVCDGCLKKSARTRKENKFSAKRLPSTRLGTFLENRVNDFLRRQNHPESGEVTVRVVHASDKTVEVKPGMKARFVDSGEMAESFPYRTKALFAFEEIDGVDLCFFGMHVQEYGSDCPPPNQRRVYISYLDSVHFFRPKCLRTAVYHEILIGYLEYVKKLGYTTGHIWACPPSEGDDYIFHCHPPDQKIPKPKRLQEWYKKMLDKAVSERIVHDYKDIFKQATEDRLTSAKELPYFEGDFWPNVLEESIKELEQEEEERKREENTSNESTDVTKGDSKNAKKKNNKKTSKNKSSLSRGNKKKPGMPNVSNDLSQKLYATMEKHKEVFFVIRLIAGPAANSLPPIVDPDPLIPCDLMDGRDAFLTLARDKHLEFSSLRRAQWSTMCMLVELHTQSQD
Text: The following example describes materials and methods relating to a biochemical assay for EP300. IC50 values (micromolar (μM)) are summarized in Table 1, Table 2, and Table 3 under the column labeled: “EP300 Biochemistry IC50 (micromolar).”

[1] = system: H3K18Ac in HB-CLS-2 cells; test: H3K18AC in-cell western (ICW) assay; assay type: cell-based; conditions: H3K18Ac in-cell western; read-out: CREBBP ICW IC50
Method in brief: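 In-cell western: after methanol fixation, blocking, overnight 4° C anti-H3K18Ac staining, then 800CW secondary plus DRAQ5 for DNA content, integrated intensities were scanned at 800 and 700 nm. Before this, compound exposure lasted 2 hr at 37° C in HB-CLS-2 cells plated 16–24 hours earlier. Values expressed as IC50 (μM).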

CREBBP (1084-1701) = biological target: T2, CREBBP (1084-1701) (Homo sapiens, UniProt Q92793); test: Biochemical assay for CREBBP (1084-1701), SAMDI; conditions: SAMDI, read-out: CREBBP Biochemistry IC50
T2 construct: measured in the following biochemical assay using CREBBP (1084-1701); purchased
T2 sequence (Q92793 1084-1701): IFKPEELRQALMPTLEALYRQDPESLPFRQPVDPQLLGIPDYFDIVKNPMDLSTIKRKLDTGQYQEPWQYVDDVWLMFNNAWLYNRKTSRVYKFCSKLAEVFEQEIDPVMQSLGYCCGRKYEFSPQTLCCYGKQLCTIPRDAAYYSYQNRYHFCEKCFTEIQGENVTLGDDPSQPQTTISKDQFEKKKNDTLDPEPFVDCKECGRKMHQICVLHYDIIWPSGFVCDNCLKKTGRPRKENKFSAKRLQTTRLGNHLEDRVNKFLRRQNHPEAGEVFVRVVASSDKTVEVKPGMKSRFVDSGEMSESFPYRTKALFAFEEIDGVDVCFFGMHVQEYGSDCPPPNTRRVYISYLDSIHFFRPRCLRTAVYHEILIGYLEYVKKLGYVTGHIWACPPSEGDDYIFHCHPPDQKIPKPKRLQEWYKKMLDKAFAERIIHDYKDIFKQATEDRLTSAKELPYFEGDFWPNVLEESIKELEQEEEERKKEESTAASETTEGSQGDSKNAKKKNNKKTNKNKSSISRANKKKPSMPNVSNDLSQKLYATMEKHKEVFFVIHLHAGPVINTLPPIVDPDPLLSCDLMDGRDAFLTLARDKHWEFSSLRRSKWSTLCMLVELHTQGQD
Method in brief: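 Acetyltransferase activity measured by SAMDI mass spectrometry after capture on biochip. Enzyme sat with compound 30 min at RT before acetyl-CoA and biotinylated H3 11-25 (K14R, K23R) peptide were added for 30 min at RT. Formic acid quench, bicarbonate neutralisation; IC50 values reported.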

647V cells = test: High throughput proliferation (HTP) assay; assay type: cell-based; conditions: Homo sapiens, 647-V, high throughput proliferation; read-out: CREBBP HTP IC50
Method in brief: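 Proliferation IC50 (micromolar) derived from a 7-day CellTiter-Glo viable-cell readout in 647V cells exposed, in triplicate, to rising compound concentrations; cells grown in DMEM plus 15% heat-inactivated FBS at 37° C under 5% CO2.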

| SMILES | IC50 (EP300 (P300(1048-1664))) [nM] | IC50 [1] [nM] | IC50 (CREBBP (1084-1701)) [nM] | IC50 (647V cells) [nM] |
| --- | --- | --- | --- | --- |
| CCc1ncc(CN(C)C(=O)c2nc(-c3cc(Cl)cc(NCCNC)c3)nc3ccc(Cl)cc23)n1C [Compound 555] | 7.1 | 226 | 22.8 | 102 |
| CCn1ncc(CN(C)C(=O)c2cc(-c3nn(C)c(C(=O)NC)c3C)nc3ccc(Cl)cc23)c1C [Compound 556] | ≥ 50000 | 20000 | ≥ 50000 | 6290 |
| CCn1nc(C)c(CN(C)C(=O)c2cc(-c3ccc(NCCNC)c(C)n3)nc3ccc(Cl)cc23)c1C [Compound 557] | 5200 | 18400 | 14100 | 6800 |
| CCn1ncc(CN(C)C(=O)c2nc(-c3ccc4n[nH]c(NC)c4c3)nc3ccc(Cl)cc23)c1C [Compound 558] | 1.5 | 39.3 | 4.27 | 76.3 |
| CCn1ncc(CN(C)C(=O)c2cc(-c3ccc(NCCNC)c(C)n3)nc3ccc(Cl)cc23)c1COC [Compound 559] | 2050 | 838 | 593 | 1240 |
| CCc1ncc(CN(C)C(=O)c2cc(-c3ccc(NCCNC)c(C)n3)nc3ccc(Cl)cc23)o1 [Compound 560] | 412 | 242 | 142 | 448 |
| CCc1ncc(CN(C)C(=O)c2cc(-c3ccc(NC4CN(C)C4)c(C)n3)nc3ccc(Cl)cc23)n1C [Compound 561] | 6.5 | 58.2 | 19.1 | 22.8 |
| CCn1ncc(CN(C)C(=O)c2nc(-c3cc4c(NC)n[nH]c4cc3C)nc3ccc(Br)cc23)c1C [Compound 562] | 14.9 | 154 | 49.4 | 87.9 |
| CCc1ncc(CN(C)C(=O)c2nc(-c3cc4c(NC)n[nH]c4cc3C)nc3ccc(Cl)cc23)n1C [Compound 563] | 5.7 | 55.4 | 13.5 | 37.5 |
| CNCCNc1ccc(-c2cc(C(=O)N(C)Cc3cn[nH]c3C)c3cc(Cl)ccc3n2)nc1C [Compound 564] | ≥ 50000 | 20000 | ≥ 50000 | 9530 |
| CCc1ncc(CN(C)C(=O)c2cc(-c3ccc(NCCNC)c(F)n3)nc3ccc(Cl)cc23)n1C [Compound 565] | 33.8 | 153 | 51.1 | 193 |
| CCc1ncc(CN(C)C(=O)c2nc(-c3cc(C)cc(NC4CNC4)c3)nc3ccc(Cl)cc23)n1C [Compound 566] | 11.3 | 816 | 37.5 | 338 |
| CCc1ncc(CN(C)C(=O)c2cc(-c3cc(NCCNC)cc(OC)n3)nc3ccc(Cl)cc23)n1C [Compound 567] | 22.2 | 77.9 | 79.7 | 32 |
| CCn1ncc(CN(C)C(=O)c2cc(-c3ccc(NCCOC)c(C)n3)nc3ccc(Cl)cc23)c1C [Compound 568] | 31.1 | 127 | 23.6 | 260 |
| CCn1ncc(CN(C)C(=O)c2cc(-c3cc(NCCN(C)C)cc(C)n3)nc3ccc(Cl)cc23)c1C [Compound 570] | 13.7 | 76.3 | 45 | 30.1 |
| CCc1ncc(CN(C)C(=O)c2cc(-c3ccc(NCC(O)CNC)c(C)n3)nc3ccc(Cl)cc23)n1C (stereo not shown) [Compound 571] | 11.1 | 428 | 25.4 | 118 |
| CCc1ncc(CN(C)C(=O)c2cc(-c3ccc(N(C)C4CN(C)C4)c(C)n3)nc3ccc(Cl)cc23)n1C [Compound 572] | 23.3 | 197 | 116 | 133 |
| CCc1nc(-c2cc(C(=O)N(C)Cc3cnn(CC)c3C)c3cc(Cl)ccc3n2)ccc1NCCN(C)C [Compound 573] | 45.4 | 52.7 | 46.5 | 49.3 |
| CCc1ncc(CN(C)C(=O)c2nc(-c3cc(C)nc(NCCNC)c3)nc3ccc(Cl)cc23)n1C [Compound 574] | 16.9 | 149 | 47.9 | 61.3 |

| SMILES | IC50 (EP300 (P300(1048-1664))) [nM] | IC50 [1] [nM] | IC50 (CREBBP (1084-1701)) [nM] | IC50 (647V cells) [nM] |
| --- | --- | --- | --- | --- |
| CCc1noc(CN(C)C(=O)c2cc(-c3ccc(NCCNC)c(C)n3)nc3ccc(Cl)cc23)n1 [Compound 575] | 3870 | 1520 | 3380 | 1530 |
| CCc1nc(-c2cc(C(=O)N(C)Cc3cnc(CC)n3C)c3cc(COC)ccc3n2)ccc1NCCN(C)C [Compound 580] | 43.9 | 176 | 65.9 | 130 |
| CCn1ncc(CN(C)C(=O)c2nc(-c3cnc4c[nH]nc4c3)nc3ccc(Cl)cc23)c1C [Compound 581] | 1430 | 513 | 3320 | 839 |
| CCn1ncc(CN(C)C(=O)c2cc(-c3cc(C4=NCCN4)n(C)n3)nc3ccc(Cl)cc23)c1C [Compound 582] | 9.3 | 65.5 | 25.8 | 122 |
| CCc1ncc(CN(C)C(=O)c2nc(-c3cc(C)nc(NCCN(C)C)c3)nc3ccc(Cl)cc23)n1C [Compound 583] | 14.2 | 29.7 | 34 | 10.8 |
| CCn1ncc(CN(C)C(=O)c2cc(-c3ccc(NCCNC)c(OC)c3)nc3ccc(Cl)cc23)c1C [Compound 584] | 221 | 273 | 44.5 | 165 |
| CCn1ncc(CN(C)C(=O)c2cc(-c3ccc(NCCN(C)C)c(OC)c3)nc3ccc(Cl)cc23)c1C [Compound 585] | 903 | 332 | 104 | 177 |
| CCc1nn(C)c(CN(C)C(=O)c2cc(-c3ccc(NCCNC)c(C)n3)nc3ccc(Cl)cc23)c1C [Compound 586] | 23300 | 7240 | 19400 | 2130 |
| CCc1nn(C)c(CN(C)C(=O)c2cc(-c3ccc(NCCN(C)C)c(C)n3)nc3ccc(Cl)cc23)c1C [Compound 587] | 17300 | 8020 | 14200 | 1610 |
| CCc1ncc(CN(C)C(=O)c2cc(-c3ccc(NCC(O)CN(C)C)c(C)n3)nc3ccc(Cl)cc23)n1C (stereo not shown) [Compound 588] | 8.9 | 73.3 | 28.6 | 27.9 |
| CCc1cc(CN(C)C(=O)c2cc(-c3ccc(NCCN(C)C)c(C)n3)nc3ccc(Cl)cc23)on1 [Compound 590] | 734 | 403 | 336 | 390 |
| CCn1ncc(CN(C)C(=O)c2cc(-c3ccc(NCC(CN(C)C)OC)c(C)n3)nc3ccc(Cl)cc23)c1C (stereo not shown) [Compound 592] | 10.9 | 4500 | 35.5 | 7230 |
| CCc1nc(-c2cc(C(=O)N(C)Cc3onc(CC)c3C)c3cc(COC)ccc3n2)ccc1NCCN(C)C [Compound 593] | 175 | 170 | 53.9 | 103 |
| CCc1nc(-c2cc(C(=O)N(C)Cc3cnn(CC)c3C)c3cc(COC)ccc3n2)ccc1NCCNC [Compound 595] | 59.9 | 145 | 51.6 | 99.1 |
| Cc1nc(-c2cc(C(=O)N(C)Cc3cnn(CC(F)(F)F)c3C)c3cc(Cl)ccc3n2)ccc1NCCN(C)C [Compound 597] | 28.5 | 72.6 | 36.2 | 78.7 |
| Cc1nc(-c2cc(C(=O)N(C)Cc3cnc(C(F)(F)F)n3C)c3cc(Cl)ccc3n2)ccc1NCCN(C)C [Compound 598] | 282 | 316 | 105 | 283 |
| CNCCNc1ccc(-c2cc(C(=O)N(C)Cc3onc(C4CC4)c3C)c3cc(Cl)ccc3n2)nc1C [Compound 599] | 1750 | 1600 | 518 | 1260 |
| CCn1ncc(CN(C)C(=O)c2cc(-c3ccc(NC4CN(CC#N)C4)c(C)n3)nc3ccc(Cl)cc23)c1C [Compound 601] | 30.2 | 143 | 44.9 | 72.6 |
